Laboratory results as given in ChEMBL document CHEMBL5653631, “A Potent and Selective ULK1 Inhibitor Suppresses Autophagy and Sensitizes Cancer Cells to Nutrient Stress” (iScience, 2018).
Blank lines part the entries; values can stand above or below the compound they belong to.

Key:
[1] = target: Tyrosine-protein kinase Lyn (Homo sapiens) (UniProt P07948); assay: Inhibition of human recombinant LYN at 500 nM in presence of ATP by radiometric assay relative to control
[2] = target: Cyclin-dependent kinase 9 (Homo sapiens) (UniProt P50750); assay: Inhibition of human recombinant CDK9 at 500 nM in presence of ATP by radiometric assay relative to control
[3] = target: Serine/threonine-protein kinase WNK3 (Homo sapiens) (UniProt Q9BYP7); assay: Inhibition of human recombinant Wnk3 at 500 nM related to control ULK1
[4] = target: T1, Mitogen-activated protein kinase kinase kinase 5 (Homo sapiens) (UniProt Q99683); assay: Inhibition of human recombinant MAP3K5 at 500 nM related to control ULK1
T1 sequence (whole entry): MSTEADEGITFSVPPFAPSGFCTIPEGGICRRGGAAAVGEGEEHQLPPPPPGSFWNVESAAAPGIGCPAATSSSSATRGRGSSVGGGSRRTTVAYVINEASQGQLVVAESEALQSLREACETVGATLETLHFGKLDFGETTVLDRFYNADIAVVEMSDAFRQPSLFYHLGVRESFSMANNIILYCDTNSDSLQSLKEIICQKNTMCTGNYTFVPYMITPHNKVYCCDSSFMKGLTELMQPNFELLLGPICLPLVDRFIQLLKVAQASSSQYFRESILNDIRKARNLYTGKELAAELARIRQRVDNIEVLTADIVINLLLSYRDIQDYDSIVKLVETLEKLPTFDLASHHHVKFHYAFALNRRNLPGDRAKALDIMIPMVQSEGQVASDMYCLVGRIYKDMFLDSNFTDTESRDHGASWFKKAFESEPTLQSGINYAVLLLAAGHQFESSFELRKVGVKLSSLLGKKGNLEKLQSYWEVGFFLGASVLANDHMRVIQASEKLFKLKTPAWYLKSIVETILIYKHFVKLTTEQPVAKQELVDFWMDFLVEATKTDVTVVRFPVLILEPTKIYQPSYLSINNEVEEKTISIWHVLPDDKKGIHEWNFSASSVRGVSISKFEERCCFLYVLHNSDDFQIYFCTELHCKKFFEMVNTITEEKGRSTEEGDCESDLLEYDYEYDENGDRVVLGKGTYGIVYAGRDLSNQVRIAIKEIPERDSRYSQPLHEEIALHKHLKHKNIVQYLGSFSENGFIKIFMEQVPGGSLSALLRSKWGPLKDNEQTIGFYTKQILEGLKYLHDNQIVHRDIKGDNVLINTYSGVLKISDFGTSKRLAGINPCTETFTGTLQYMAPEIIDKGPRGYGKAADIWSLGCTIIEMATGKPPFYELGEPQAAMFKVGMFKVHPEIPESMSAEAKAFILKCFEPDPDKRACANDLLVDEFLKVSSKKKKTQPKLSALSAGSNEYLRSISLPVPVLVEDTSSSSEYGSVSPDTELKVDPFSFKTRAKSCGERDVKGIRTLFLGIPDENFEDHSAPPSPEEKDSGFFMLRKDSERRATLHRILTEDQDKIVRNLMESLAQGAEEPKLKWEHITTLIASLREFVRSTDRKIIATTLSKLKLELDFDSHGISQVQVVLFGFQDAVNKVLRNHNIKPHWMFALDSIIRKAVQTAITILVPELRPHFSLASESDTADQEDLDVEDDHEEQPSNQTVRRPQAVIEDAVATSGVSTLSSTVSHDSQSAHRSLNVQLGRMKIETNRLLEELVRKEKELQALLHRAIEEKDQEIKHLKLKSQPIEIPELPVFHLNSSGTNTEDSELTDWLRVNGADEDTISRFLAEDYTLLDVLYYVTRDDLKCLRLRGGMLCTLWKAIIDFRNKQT

[5] = target: Mitogen-activated protein kinase kinase kinase kinase 1 (Homo sapiens) (UniProt Q92918); assay: Inhibition of human recombinant HPK1 at 40 nM related to control ULK1
[6] = target: T2, Serine/threonine-protein kinase Sgk2 (Homo sapiens) (UniProt Q9HBY8); assay: Inhibition of human recombinant SGK2 at 40 nM related to control ULK1
T2 sequence (whole entry): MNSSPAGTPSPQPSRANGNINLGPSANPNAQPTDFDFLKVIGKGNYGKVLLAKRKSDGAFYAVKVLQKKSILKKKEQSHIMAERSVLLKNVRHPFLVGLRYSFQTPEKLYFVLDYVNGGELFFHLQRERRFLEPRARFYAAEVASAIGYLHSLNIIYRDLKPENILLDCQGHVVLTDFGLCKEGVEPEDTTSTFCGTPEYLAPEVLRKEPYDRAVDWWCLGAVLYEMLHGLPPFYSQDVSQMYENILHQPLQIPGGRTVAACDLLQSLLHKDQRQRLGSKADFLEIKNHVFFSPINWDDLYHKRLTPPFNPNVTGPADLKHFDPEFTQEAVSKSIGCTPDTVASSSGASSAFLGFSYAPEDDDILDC

[7] = target: Serine/threonine-protein kinase 38-like (Homo sapiens) (UniProt Q9Y2H1); assay: Inhibition of human recombinant NDR2 at 40 nM related to control ULK1
[8] = target: Serine/threonine-protein kinase 10 (Homo sapiens) (UniProt O94804); assay: Inhibition of human recombinant LOK at 15 nM related to control ULK1
[9] = target: Homeodomain-interacting protein kinase 3 (Homo sapiens) (UniProt Q9H422); assay: Inhibition of human recombinant HIPK3 at 15 nM in presence of ATP by radiometric assay relative to control
[10] = target: T3, Serine/threonine-protein kinase TBK1 (Homo sapiens) (UniProt Q9UHD2); assay: Inhibition of human recombinant TBK1 at 15 nM related to control ULK1
T3 sequence (whole entry): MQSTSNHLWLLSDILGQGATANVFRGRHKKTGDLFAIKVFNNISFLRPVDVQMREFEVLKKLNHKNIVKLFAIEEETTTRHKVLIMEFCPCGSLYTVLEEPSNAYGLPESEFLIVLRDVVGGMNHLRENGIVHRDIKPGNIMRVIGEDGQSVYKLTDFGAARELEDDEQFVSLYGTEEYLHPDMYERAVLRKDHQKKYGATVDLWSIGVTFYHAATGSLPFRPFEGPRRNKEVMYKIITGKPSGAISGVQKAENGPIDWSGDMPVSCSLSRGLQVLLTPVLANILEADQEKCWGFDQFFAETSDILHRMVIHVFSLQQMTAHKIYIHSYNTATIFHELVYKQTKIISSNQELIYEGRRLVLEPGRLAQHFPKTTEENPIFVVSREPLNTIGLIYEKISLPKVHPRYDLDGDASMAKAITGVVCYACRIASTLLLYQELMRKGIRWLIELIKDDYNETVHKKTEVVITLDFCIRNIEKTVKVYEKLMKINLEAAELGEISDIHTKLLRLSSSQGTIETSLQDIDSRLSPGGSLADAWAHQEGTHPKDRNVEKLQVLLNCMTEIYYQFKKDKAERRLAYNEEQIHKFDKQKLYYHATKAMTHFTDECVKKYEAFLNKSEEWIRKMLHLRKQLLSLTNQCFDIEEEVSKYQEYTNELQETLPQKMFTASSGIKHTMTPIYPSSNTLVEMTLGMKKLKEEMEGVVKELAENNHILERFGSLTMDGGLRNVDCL

Chain of Tyrosine-protein kinase Lyn (Homo sapiens) (P07948 2-512 limits assumed): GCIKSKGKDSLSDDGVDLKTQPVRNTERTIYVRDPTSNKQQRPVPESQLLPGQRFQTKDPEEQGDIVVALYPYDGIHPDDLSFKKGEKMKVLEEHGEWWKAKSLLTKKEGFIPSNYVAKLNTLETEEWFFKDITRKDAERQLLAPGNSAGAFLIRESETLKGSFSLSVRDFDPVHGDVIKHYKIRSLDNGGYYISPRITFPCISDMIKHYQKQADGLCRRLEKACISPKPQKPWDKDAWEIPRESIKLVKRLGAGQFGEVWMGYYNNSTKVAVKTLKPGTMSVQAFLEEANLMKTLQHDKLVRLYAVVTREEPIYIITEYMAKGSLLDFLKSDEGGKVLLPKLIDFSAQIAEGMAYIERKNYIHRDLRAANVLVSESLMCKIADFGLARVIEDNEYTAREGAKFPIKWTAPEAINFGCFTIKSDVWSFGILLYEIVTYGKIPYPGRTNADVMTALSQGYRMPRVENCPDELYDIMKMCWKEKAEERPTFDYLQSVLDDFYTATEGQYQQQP
Chain of Serine/threonine-protein kinase 10 (Homo sapiens) (O94804 whole entry, looked up): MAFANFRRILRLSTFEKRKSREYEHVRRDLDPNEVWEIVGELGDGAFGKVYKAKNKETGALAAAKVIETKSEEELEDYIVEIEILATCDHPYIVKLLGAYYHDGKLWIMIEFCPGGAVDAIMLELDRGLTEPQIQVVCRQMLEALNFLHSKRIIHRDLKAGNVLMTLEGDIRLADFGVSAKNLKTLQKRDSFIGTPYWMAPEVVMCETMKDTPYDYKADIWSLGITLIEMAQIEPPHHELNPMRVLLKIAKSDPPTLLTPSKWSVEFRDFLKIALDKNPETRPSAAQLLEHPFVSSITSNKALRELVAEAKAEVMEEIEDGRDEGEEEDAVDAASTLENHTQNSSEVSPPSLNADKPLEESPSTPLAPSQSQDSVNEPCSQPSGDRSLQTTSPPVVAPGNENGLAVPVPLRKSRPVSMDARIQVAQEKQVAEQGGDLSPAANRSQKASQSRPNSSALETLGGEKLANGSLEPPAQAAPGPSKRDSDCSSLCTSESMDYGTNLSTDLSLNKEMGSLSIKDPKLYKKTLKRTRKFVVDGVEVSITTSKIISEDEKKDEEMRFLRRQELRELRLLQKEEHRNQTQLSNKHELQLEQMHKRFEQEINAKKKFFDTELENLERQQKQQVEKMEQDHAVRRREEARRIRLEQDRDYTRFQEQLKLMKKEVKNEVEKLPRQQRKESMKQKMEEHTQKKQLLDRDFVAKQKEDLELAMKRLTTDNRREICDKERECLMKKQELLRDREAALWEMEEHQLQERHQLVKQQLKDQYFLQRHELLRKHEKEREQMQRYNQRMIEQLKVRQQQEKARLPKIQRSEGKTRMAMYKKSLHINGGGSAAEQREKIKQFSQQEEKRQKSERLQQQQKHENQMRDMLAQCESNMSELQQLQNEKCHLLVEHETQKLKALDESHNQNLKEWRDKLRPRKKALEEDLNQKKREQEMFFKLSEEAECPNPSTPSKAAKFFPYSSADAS
Chain of Mitogen-activated protein kinase kinase kinase kinase 1 (Homo sapiens) (Q92918 whole entry, looked up): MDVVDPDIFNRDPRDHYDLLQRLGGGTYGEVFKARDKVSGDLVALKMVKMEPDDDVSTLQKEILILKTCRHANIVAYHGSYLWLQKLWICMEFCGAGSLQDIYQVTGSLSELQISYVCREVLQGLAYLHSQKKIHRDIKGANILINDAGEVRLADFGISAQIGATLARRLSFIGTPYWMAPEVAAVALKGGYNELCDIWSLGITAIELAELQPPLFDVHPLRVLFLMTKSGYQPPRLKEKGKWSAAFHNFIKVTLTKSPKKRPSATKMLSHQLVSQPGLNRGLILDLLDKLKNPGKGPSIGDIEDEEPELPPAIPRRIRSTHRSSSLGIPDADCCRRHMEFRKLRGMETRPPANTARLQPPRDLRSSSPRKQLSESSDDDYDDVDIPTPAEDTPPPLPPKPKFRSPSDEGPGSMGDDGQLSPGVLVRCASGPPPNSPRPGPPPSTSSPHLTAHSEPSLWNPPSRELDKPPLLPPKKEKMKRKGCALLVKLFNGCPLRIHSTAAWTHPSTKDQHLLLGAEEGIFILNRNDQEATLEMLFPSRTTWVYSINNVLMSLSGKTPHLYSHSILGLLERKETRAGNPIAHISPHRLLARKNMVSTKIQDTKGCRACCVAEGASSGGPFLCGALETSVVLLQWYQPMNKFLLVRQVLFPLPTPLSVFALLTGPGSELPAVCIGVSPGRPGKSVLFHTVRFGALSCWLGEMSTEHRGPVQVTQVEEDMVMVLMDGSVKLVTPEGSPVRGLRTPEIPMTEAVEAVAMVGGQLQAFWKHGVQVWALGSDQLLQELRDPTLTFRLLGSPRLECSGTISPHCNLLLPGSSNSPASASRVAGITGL
Chain of Homeodomain-interacting protein kinase 3 (Homo sapiens) (Q9H422 whole entry, looked up): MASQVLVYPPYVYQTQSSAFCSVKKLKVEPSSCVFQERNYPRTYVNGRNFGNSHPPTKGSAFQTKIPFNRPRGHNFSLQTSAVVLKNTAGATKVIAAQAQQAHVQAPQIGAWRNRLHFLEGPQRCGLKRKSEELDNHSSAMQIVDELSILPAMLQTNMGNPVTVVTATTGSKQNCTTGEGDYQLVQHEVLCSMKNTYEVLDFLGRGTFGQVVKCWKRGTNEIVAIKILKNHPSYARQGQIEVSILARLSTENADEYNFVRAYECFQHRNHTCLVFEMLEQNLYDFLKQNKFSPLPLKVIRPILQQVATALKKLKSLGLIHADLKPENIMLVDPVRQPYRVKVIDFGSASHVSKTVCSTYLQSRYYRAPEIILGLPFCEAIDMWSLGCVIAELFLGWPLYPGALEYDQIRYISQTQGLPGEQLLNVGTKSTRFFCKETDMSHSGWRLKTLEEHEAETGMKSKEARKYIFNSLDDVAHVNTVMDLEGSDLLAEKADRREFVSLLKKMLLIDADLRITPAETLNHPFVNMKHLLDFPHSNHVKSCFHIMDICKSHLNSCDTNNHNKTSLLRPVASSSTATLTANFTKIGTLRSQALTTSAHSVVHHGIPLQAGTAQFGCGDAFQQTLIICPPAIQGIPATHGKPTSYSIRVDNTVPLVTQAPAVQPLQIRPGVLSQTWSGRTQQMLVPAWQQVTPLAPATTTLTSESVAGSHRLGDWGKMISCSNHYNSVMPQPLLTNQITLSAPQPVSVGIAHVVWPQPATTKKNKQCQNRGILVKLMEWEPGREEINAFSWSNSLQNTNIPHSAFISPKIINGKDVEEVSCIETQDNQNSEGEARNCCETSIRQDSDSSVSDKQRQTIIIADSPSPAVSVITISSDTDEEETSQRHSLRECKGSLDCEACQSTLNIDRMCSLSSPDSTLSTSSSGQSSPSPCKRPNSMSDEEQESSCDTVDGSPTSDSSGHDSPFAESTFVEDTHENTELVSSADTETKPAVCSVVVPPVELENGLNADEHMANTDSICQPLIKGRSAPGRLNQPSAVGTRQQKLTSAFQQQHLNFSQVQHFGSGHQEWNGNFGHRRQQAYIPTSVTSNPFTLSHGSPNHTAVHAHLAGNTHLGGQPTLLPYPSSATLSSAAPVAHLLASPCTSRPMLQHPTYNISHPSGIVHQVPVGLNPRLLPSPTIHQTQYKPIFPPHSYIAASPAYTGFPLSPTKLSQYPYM
Chain of Serine/threonine-protein kinase 38-like (Homo sapiens) (Q9Y2H1 2-464 limits assumed): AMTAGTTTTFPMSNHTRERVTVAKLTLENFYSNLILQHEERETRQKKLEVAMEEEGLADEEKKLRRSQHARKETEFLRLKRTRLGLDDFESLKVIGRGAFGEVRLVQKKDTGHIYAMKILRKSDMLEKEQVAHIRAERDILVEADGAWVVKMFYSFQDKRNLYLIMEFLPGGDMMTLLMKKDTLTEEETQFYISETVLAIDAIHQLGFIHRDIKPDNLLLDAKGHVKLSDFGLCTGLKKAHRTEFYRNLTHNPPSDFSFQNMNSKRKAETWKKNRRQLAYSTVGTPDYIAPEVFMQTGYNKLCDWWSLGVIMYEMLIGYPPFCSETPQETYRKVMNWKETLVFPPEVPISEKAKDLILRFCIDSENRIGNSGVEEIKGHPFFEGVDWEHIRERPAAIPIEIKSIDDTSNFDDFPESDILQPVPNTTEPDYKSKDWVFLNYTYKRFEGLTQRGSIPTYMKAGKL
Chain of Cyclin-dependent kinase 9 (Homo sapiens) (P50750 whole entry): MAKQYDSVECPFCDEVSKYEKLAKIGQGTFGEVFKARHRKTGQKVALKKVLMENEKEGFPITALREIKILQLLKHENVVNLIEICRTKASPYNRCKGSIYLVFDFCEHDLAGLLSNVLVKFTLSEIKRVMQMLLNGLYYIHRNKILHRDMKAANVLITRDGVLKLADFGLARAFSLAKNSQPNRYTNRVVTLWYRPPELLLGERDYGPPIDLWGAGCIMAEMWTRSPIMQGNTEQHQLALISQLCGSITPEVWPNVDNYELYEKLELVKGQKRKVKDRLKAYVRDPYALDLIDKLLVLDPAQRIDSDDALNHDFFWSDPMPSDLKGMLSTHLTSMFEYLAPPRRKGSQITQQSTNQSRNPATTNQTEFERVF

inhibition [1]: 30% | inhibition [2]: 3% | fold change (FC) [3]: 0.08 | fold change (FC) [4]: 0
SMILES: CNC(=O)c1ccccc1Oc1nc(Nc2cc(OC)c(OC)c(OC)c2)ncc1Br

fold change (FC) [5]: 0 | fold change (FC) [6]: 0.16 | fold change (FC) [7]: 0
SMILES: O=C(N[C@@H](C1CC1)C(F)(F)F)c1cc(-c2cnn3cc(-c4ccc(F)cc4)cnc23)cs1

fold change (FC) [8]: 0 | inhibition [9]: 0% | fold change (FC) [10]: 0.9
SMILES: CC(C)[C@H](NC(=O)c1cc(-c2cnn3cc(-c4ccc(OCCN5CCCCC5)cc4)cnc23)cs1)C(F)(F)F
